# Experimental data reported in US4749571A, “Physiologically-active novel substance "Aldostatin" and production method thereof” (Toyo Jozo Co., Ltd., priority 1986, dated 1988).
# Tests used:
# aldose reductase = target: T1, aldose reductase (Bos taurus, UniProt P16116); assay: Aldose reductase inhibitory activity; type: biochemical, bovine (lenses); settings: partially purified bovine lens enzyme
# T1 construct: partially purified aldose reductase derived from bovine lenses; from tissue; host or cells: bovine lenses
# Method: The preparation of an aldose reductase and the quantitative analysis of its enzymatic activity were effected in accordance with the method described by Hayman et al. in "Journal of Biological Chemistry" 240, 877 (1965). It was a partially purified aldose reductase derived from bovine lenses that was employed as an enzyme. Placed in a quartz cell in a spectrophotometer photometer was 2.4 ml of a 5×10^- 5M NADPH solution dissolved in 2/15M phosphate buffer (pH 6.0), 0.4 ml of 15 milli-units/ml solution of the enzyme and 0.1 ml of an aqueous aldostatin of one of various concentration. The contents were pre-incubated at 37° C. for 4 minutes. […] The reduction of the absorbance at 340 nm was traced at 37° C. for 4 minutes. At that time, the value (B) of tan θ was determined. Similarly, the reduction of the absorbance at 340 nm without addition of the inhibitor "aldostatin" was tracked. At that time, the value (A) of tan θ was determined. Percent inhibition (%) was calculated as follows. [formula]
# The amount of inhibitor for 50% inhibition was expressed as IC50.
# mice = assay: Acute toxicity; type: in vivo; settings: i.v., dose of 200 mg/kg
# Solubility = type: physicochemical
compound,measurement,setting,value
O=CN[C@@H](Cc1ccc(O)c(-c2cc(C[C@H](NC=O)C(=O)O)ccc2O)c1)C(=O)O [aldostatin],IC50,aldose reductase; substrate glucose (5.0 × 10^-2 M),2640 nM
same,IC50,"aldose reductase; substrate glyceraldehyde (5.0 × 10^-4 M), NADPH, pH 6.0, 37° C.",1200 nM
same,toxic effect (acute toxicity),mice,no toxic effect
same,solubility,Solubility; acetone,slightly soluble
same,solubility,Solubility; benzene,insoluble
same,solubility,Solubility; chloroform,slightly soluble
same,solubility,Solubility; dimethylsulfoxide,soluble
same,solubility,Solubility; ethyl acetate,slightly soluble
same,solubility,Solubility; hexane,insoluble
same,solubility,Solubility; methanol,soluble
same,solubility,Solubility; petroleum ether,insoluble
same,solubility,Solubility; water,soluble
